What was measured:
[1] = system: patients suffering from ARDS; test: Prospective randomized double blind placebo controlled study of PGE1 infusion in ARDS patients (Example 1); type: in vivo, human; details: 30 days after discontinuing the infusion; i.v. 5 ng/kg/min increased to 30 ng/kg/min, for 7 days or until extubated; 21 patients
Method: An intravenous solution was prepared by mixing one 5 ml ampoule of Prostin VR Pediatric Sterile Solution containing 2.5 mg PGE1 active drug with one liter of D5W or Normal Saline. Dosages of this solution or of a control solution containing only vehicle but no PGE1 were administered to 41 patients suffering from ARDS in a prospective randomized double blind placebo controlled study. PGE1 or the control solution was started at a dose of 5 ng/kg/min and then increased 5 ng/kg/min every 30 minutes until a rate of 30 ng/kg/min was reached.
This dosage was continued for 7 days or until the patient was extubated, whichever came sooner. The survival rate 30 days after discontinuing the infusion was as follows: […]

[2] = system: patients with ARDS; test: Double blind randomized study of PGE1 versus placebo in ARDS patients; survival, and mortality by creatinine/bilirubin level (Example 2); type: in vivo, human; details: 30 ng/kg/min for 7 days; 17 out of 26 patients survived
Method: Fifty patients with ARDS were randomized to receive PGE1 (30 ng/kg/min for 7 days) or placebo (equivalent volumes of saline and time) in a double blind study. For entry, patients must have required mechanical ventilation with an inspired oxygen concentration of 40% or more and a positive end respiratory pressure of 5 em of water or more. Most of the patients (70%) were septic. 17 out of 26 patients who had received PGE1 survived (65% survival) while only 7 out of 24 patients who had received placebo survived (29% survival).
The relation between the bilirubin and creatinine levels and the mortality of the patients enrolled in this study is depicted in Table 2. […] Creatinine and bilirubin levels are indicative of kidney and liver function, respectively. The data thus indicate that PGE1 prevents severe kidney and liver damage, and greatly decreases the risk of death, for patients highly susceptible to kidney failure, liver failure, and/or death as a result of trauma, sepsis, shock, and similar catastrophic events.

[3] = system: microvascular permeability; details: sheep; cited from earlier work
[4] = system: endotoxin-induced lung injury; details: infusion of the prostaglandin; cited from earlier work
[5] = system: beagles suffering from hemorrhagic shock; details: infusion; cited from earlier work
[6] = system: patients with severe postoperative ARDS; details: cited from earlier work
[7] = system: trauma; details: reported experimentally; cited from earlier work

SMILES | Survival Rate (%) [1] [%] | survival [2] [%] | increase of microvascular permeability [3] | lung and systemic injury associated with endotoxin infusion [4] | survival rate [5] | lung function of each patient ([6]; 5 patients with severe postoperative ARDS) | patients died of associated problems, including vital organ failure ([6]; of 5 patients with severe postoperative ARDS) | survival rate after trauma [7]
CCCCC[C@H](O)/C=C/[C@H]1[C@H](O)CC(=O)[C@@H]1CCCCCCC(=O)O [PGE1, Prostaglandin E1] | 71.4 | 65 | Reversal | decreased | improved | improved | three | –
CCCCC[C@H](O)/C=C/[C@@H]1[C@H]2C/C(=C/CCCC(=O)O)O[C@H]2C[C@H]1O [PGI2, prostacyclin] | – | – | – | decreased | – | – | – | beneficial in increasing the survival rate
